Target: T1, Ox-R2 (orexin R2 receptor) (Homo sapiens, UniProt O43614)
T1 construct: gene HCRTR2
T1 sequence (O43614 1-444): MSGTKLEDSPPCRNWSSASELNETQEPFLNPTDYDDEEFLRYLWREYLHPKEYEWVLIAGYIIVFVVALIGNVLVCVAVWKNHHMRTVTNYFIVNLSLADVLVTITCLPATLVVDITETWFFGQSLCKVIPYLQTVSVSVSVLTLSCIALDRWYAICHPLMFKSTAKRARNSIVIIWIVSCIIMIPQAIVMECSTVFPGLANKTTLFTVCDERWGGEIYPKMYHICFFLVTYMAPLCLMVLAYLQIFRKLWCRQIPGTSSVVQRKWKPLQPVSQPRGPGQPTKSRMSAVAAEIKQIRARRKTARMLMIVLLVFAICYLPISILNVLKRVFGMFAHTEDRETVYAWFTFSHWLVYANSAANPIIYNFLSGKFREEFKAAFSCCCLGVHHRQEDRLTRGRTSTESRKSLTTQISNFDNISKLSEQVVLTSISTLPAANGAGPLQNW
Test: FLUO-3 calcium mobilization in HEK-293 cells, inhibition of […] orexin-B response
Format: cell-based

- IC50: 332 ± 13 nM
Compound: CNC(=O)[C@@H](c1ccccc1)N1CCc2cc(OC)c(OC)cc2[C@@H]1CCc1ccc(C(F)(F)F)cc1 [almorexant]

Source: publication PMC3448615 (PLoS ONE, 2012)
